# Measured values reported in patent US20120065205A1, “PYRAZINE CARBOXAMIDE OREXIN RECEPTOR ANTAGONISTS” (priority 2009, published 2012).
# Molecular target: T1, OX2R (Homo sapiens, UniProt O43614)
# T1 construct: expressed in transfected cells; host or cells: CHO cells (membranes)
# T1 sequence (O43614 1-444): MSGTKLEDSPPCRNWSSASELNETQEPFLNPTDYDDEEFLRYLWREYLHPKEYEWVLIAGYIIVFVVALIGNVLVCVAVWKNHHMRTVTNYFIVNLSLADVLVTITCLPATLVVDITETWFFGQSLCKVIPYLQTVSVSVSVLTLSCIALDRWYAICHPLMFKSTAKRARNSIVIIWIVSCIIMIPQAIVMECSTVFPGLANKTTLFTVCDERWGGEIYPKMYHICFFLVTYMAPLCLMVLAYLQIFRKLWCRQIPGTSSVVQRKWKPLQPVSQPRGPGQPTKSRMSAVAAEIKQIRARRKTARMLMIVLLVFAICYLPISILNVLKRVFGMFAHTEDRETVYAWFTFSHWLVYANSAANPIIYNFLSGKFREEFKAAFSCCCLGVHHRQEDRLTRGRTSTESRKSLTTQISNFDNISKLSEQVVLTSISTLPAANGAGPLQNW
# Assay: radioligand binding assay, membranes from CHO cells expressing OX2 receptor
# Settings: CHO cell membranes
# Description: The utility of the compounds in accordance with the present invention as orexin receptor OX1R and/or OX2R antagonists may be readily determined without undue experimentation by methodology well known in the art, including the “FLIPR Ca^2+ Flux Assay” (Okumura et al., Biochem. Biophys. Res. Comm. 280:976-981, 2001). In a typical experiment the OX1 and OX2 receptor antagonistic activity of the compounds of the present invention was determined in accordance with the following experimental method. For intracellular calcium measurements, Chinese hamster ovary (CHO) cells expressing the rat orexin-1 receptor or the human orexin-2 receptor, are grown in Iscove's modified DMEM containing 2 mM L-glutamine, […], 1% hypoxanthine-thymidine supplement, 100 U/ml penicillin, 100 ug/ml streptomycin and 10% heat-inactivated fetal calf serum (FCS). The cells are seeded at 20,000 cells/well into Becton-Dickinson black 384-well clear bottom sterile plates coated with poly-D-lysine. All reagents were from GIBCO-Invitrogen Corp. The seeded plates are incubated overnight at 37° C. and 5% CO2. […] Within the Fluorescent Imaging Plate Reader (FLIPR, Molecular Devices), test compounds are added to the plate in a volume of 25 ul, incubated for 5 min and finally 25 ul of agonist is added. Fluorescence is measured for each well at 1 second intervals for 5 minutes and the height of each fluorescence peak is compared to the height of the fluorescence peak induced by 70 pM Ala-6,12 orexin-A with buffer in place of antagonist. […] Alternatively, compound potency can be assessed by a radioligand binding assay (described in Bergman et. al. Bioorg. Med. Chem. Lett. 2008, 18, 1425-1430) in which the inhibition constant (Ki) is determined in membranes prepared from CHO cells expressing either the OX1 or OX2 receptor. The intrinsic orexin receptor antagonist activity of a compound which may be used in the present invention may be determined by these assays.
row,Ki [nM],Compound
1,1.4,"COc1ccc(CNC(=O)c2nc(-c3cncc(C)c3)cnc2-c2ccccc2)nc1OC [1-5, N-[(5,6-dimethoxypyridin-2-yl)methyl]-6-(5-methylpyridin-3-yl)-3-phenylpyrazine-2-carboxamide]"
2,3.9,"COc1ccc(CNC(=O)c2nc(-c3cncc(Cl)c3)cnc2-c2ccccc2F)nc1OC [1-9, 6-(5-chloropyridin-3-yl)-N-[(5,6-dimethoxypyridin-2-yl)methyl]-3-(2-fluorophenyl)pyrazine-2-carboxamide]"
3,33,"COc1ccc(CNC(=O)c2nc(-c3cc(C)cc(C)c3)cnc2N2CCOCC2)nc1OC [2-5, N-[(5,6-dimethoxypyridin-2-yl)methyl]-6-(3,5-dimethylphenyl)-3-(morpholin-4-yl)pyrazine-2-carboxamide]"
